Measured values from US20260344661A1, “USE OF AN ALKYLETHER SULFATE FOR IMPROVING THE EFFICACY OF HERBICIDES” (BASF SE, priority 2022, published 2026).

Columns and labels:
HORVW (winter barley) = experiment: Greenhouse post-emergence weed control, damage vs untreated (HORVW); type: in vivo, Hordeum vulgare; conditions: 20 DAT, adjuvant g ai/ha: none (CE1-A)
AVEFA (wild oat) = experiment: Greenhouse post-emergence weed control, damage vs untreated (AVEFA); type: in vivo, Avena fatua; conditions: adjuvant g ai/ha: none (CE1-A)
Procedure: (§1) A greenhouse study was conducted to evaluate the effect of the alkylether sulfates of formula (I) and other adjuvants on the weed control efficacy of glufosinate. Seedlings of grass plants (AVEFA, ECHCG, DIGSA and SETVI) and broadleaf weeds (KCHSC, CHEAL, AMAPA, AMATA and ABUTH) were grown to a height of 3 to 20 cm, depending on the plant habit in 10×10×10 cm pots filled with sandy planting soil (Limburgerhof soil). The weeds were treated with postemergence applications of glufosinate ammonium at the respective application rates given in the following tables, either alone or combined with various amounts of the respective adjuvants.
(§2) For this, the herbicide formulation and the respective adjuvant were introduced into tap water to obtain the spray liquor. […] The spray liquor was then applied to the plant a spray volume of 200 l/ha using a sprayer (XR Teejet 110015).
(§3) The test period extended over 21 days. During this time, the plants were tended, and their response to the treatments with active compound was evaluated.
(§4) The evaluation for the damage caused by the chemical compositions was carried out using a scale from 0 to 100%, compared to the untreated control plants. Here, 0 means no damage and 100 means complete destruction of the plants.
(§5) The plants used in the greenhouse experiments belonged to the following species:
(§6) The results are summarized in the following tables 1 to 15 that show the applied doses of the individual actives as gram of active ingredient per hectare (g ai/ha), the herbicidal activity of the individual […]

ECHCG (barnyardgrass) = experiment: Greenhouse post-emergence weed control, damage vs untreated (ECHCG); type: in vivo, Echinochloa crus-galli; conditions: adjuvant g ai/ha: none (CE1-A)
Procedure: as §1, §2, §3, §4, §5, §6

DIGSA (large crabgrass) = experiment: Greenhouse post-emergence weed control, damage vs untreated (DIGSA); type: in vivo, Digitaria sanguinalis; conditions: 20 DAT, adjuvant g ai/ha: none (CE1-A)
Procedure: as §1, §2, §3, §4
(§7) The plants used in the greenhouse experiments belonged to the following species: […]

SETVI (green foxtail) = experiment: Greenhouse post-emergence weed control, damage vs untreated (SETVI); type: in vivo, Setaria viridis; conditions: adjuvant g ai/ha: none (CE1-A)
Procedure: as §1, §2, §3, §4, §5, §6

[1] = system: Øgras (average value of AVEFA, ECHCG, DIGSA and SETVI); experiment: Greenhouse post-emergence weed control, average over grasses (Øgras); type: in vivo; conditions: adjuvant g ai/ha: none (CE1-A)
Procedure: as §1, §2, §3, §4, §5, §6

KCHSC (kochia) = experiment: Greenhouse post-emergence weed control, damage vs untreated (KCHSC); type: in vivo, Kochia scoparia; conditions: 20 DAT, adjuvant g ai/ha: none (CE1-A)
Procedure: as §1, §2, §3, §4, §7

CHEAL (lambsquarter) = experiment: Greenhouse post-emergence weed control, damage vs untreated (CHEAL); type: in vivo, Chenopodium album; conditions: adjuvant g ai/ha: none (CE1-A)
Procedure: as §1, §2, §3, §4, §5, §6

AMAPA (palmer amaranth) = experiment: Greenhouse post-emergence weed control, damage vs untreated (AMAPA); type: in vivo, Amaranthus palmeri; conditions: 20 DAT, adjuvant g ai/ha: none (CE1-A)
Procedure: as §1, §2, §3, §4, §5
(§8) The results are summarized in the following tables 1 to 15 that show the applied doses of the individual actives as gram of active ingredient per hectare (g ai/ha), the herbicidal activity of the individual actives and of their combinations in post-emergence application assessed 14 and 28 day after treatment (DAT), respectively.

[2] = system: AMATA (common water hemp); experiment: Greenhouse post-emergence weed control, damage vs untreated (AMATA); type: in vivo, Amaranthus tuberculatus; conditions: 20 DAT, adjuvant g ai/ha: none (CE1-A)
Procedure: as §1, §2, §3, §4, §5, §8

ABUTH (velvetleaf) = experiment: Greenhouse post-emergence weed control, damage vs untreated (ABUTH); type: in vivo, Abutilon theophrasti; conditions: 20 DAT, adjuvant g ai/ha: none (CE1-A)
Procedure: as §1, §2
[…] During this time, the plants were tended, and their response to the treatments with active compound was evaluated.
as §4, §7

[3] = system: ØBLV (average value of KCHSC, CHEAL, AMAPA, AMATA and ABUTH); experiment: Greenhouse post-emergence weed control, average over broadleaf weeds (ØBLV); type: in vivo; conditions: 20 DAT, adjuvant g ai/ha: none (CE1-A)
Procedure: as §1, §2, §3, §4, §5, §8

[4] = 75 g ai/ha glufosinate rac., 56 (IE1-A), 62.125 (IE1-B), 51.625 (CE2-A, CE2-B), 55.75 (CE2-C), 66.75 (CE2-D), 103.25 (CE2-E)
[5] = 150 g ai/ha glufosinate rac., 112 (IE1-A), 124.25 (IE1-B), 103.25 (CE2-A, CE2-B), 111.5 (CE2-C), 133.5 (CE2-D), 206.5 (CE2-E)
[6] = 300 g ai/ha glufosinate rac., 223 (IE1-A, CE2-C), 248.5 (IE1-B), 206.5 (CE2-A, CE2-B), 267 (CE2-D), 413 (CE2-E)
[7] = 600 g ai/ha glufosinate rac., 446 (IE1-A, CE2-C), 497 (IE1-B), 413 (CE2-A, CE2-B), 534 (CE2-D), 826 (CE2-E)

In the case of `CP(=O)(O)CCC(N)C(=O)O.N` (racemic) [CE1-A, ammonium (2RS)-2-amino-4-(methylphosphinato)butyric acid], the “% activity” value (HORVW (winter barley); [4]) was 0%, the “% activity” value (HORVW (winter barley); [5]) was 0% and the “% activity” value (HORVW (winter barley); [6]) was 0%. The “% activity” value (AVEFA (wild oat); [4]) was 5%, the “% activity” value (AVEFA (wild oat); [5]) was 0% and the “% activity” value (AVEFA (wild oat); [6]) was 10%. The “% activity” value (AVEFA (wild oat); [7]) was 25%, the “% activity” value (ECHCG (barnyardgrass); [4]) was 0% and the “% activity” value (ECHCG (barnyardgrass); [5]) was 0%. The “% activity” value (ECHCG (barnyardgrass); [6]) was 0%, the “% activity” value (ECHCG (barnyardgrass); [7]) was 0% and the “% activity” value (DIGSA (large crabgrass); [4]) was 0%. For the same compound, the “% activity” value (DIGSA (large crabgrass); [5]) was 0%, the “% activity” value (DIGSA (large crabgrass); [6]) was 50% and the “% activity” value (DIGSA (large crabgrass); [7]) was 80%. The “% activity” value (SETVI (green foxtail); [4]) was 80%, the “% activity” value (SETVI (green foxtail); [5]) was 95% and the “% activity” value (SETVI (green foxtail); [6]) was 98%. The “% activity” value (SETVI (green foxtail); [7]) was 98%, the “% activity (Øgras)” value [1, 4] was 21% and the “% activity (Øgras)” value [1, 5] was 24%. The “% activity (Øgras)” value [1, 6] was 40%, the “% activity (Øgras)” value [1, 7] was 51% and the “% activity” value (KCHSC (kochia); [4]) was 0%. For the same compound, the “% activity” value (KCHSC (kochia); [5]) was 0%, the “% activity” value (KCHSC (kochia); [6]) was 5% and the “% activity” value (KCHSC (kochia); [7]) was 20%. The “% activity” value (CHEAL (lambsquarter); [4]) was 0%, the “% activity” value (CHEAL (lambsquarter); [5]) was 0% and the “% activity” value (CHEAL (lambsquarter); [6]) was 10%. For the same compound, the “% activity” value (CHEAL (lambsquarter); [7]) was 10%, the “% activity” value (AMAPA (palmer amaranth); [4]) was 50% and the “% activity” value (AMAPA (palmer amaranth); [5]) was 98%. The “% activity” value (AMAPA (palmer amaranth); [6]) was 98%, the “% activity” value (AMAPA (palmer amaranth); [7]) was 98% and the “% activity” value [2, 4] was 20%. For the same compound, the “% activity” value [2, 5] was 98%, the “% activity” value [2, 6] was 85% and the “% activity” value [2, 7] was 98%. The “% activity” value (ABUTH (velvetleaf); [4]) was 5%, the “% activity” value (ABUTH (velvetleaf); [5]) was 20% and the “% activity” value (ABUTH (velvetleaf); [6]) was 75%. For the same compound, the “% activity” value (ABUTH (velvetleaf); [7]) was 60%, the “% activity (ØBLV)” value [3, 4] was 15% and the “% activity (ØBLV)” value [3, 5] was 43%. The “% activity (ØBLV)” value [3, 6] was 55% and the “% activity (ØBLV)” value [3, 7] was 57%.
